Assay [1] relates to IL-17 production in mouse splenocytes. Briefly: Suppressive effect on IL-17 production by IL-23 stimulation in mouse splenocytes. It is filed as cell-based. The note with it: Splenocyte, 72 h, at 5 μmol/L of the test compound, 10 ng/mL human IL-23, 3 days, read-out: IL-17 production inhibition rate (%). How it is done: Using mouse splenocytes, the suppressive effect of the cyclic amine derivative (I) or a pharmacologically acceptable salt thereof on IL-17 production by IL-23 stimulation was evaluated by a partially modified method mentioned in The Journal of Biological Chemistry, 2003, Vol. 278, No. 3, p. 1910-1914.
A single cell suspension was prepared from the spleen of C57BL/6J mice (male, 7 to 23 weeks old) (Charles River Laboratories Japan, Inc.) and splenocytes were prepared using Histopaque-1083 (Sigma-Aldrich Japan). The culture medium was used by adding 10% FBS (Gibco), 50 U/mL of penicillin 50 μg/mL of streptomycin (Gibco), 50 μmol/L of 2-mercaptoethanol (Gibco), and 100 U/mL of human IL-2 (Cell Science & Technology Institute, Inc.) to RPMI1640 medium (Gibco). The test compound was dissolved in DMSO and then diluted with the culture medium to have a final concentration of DMSO of 0.1% before use. Splenocytes (3×10^5 cells/well) prepared in the culture medium were seeded in wells of a 96-well flat-bottom plate (Corning Incorporated), the test compound and 10 ng/mL of human IL-23 (R & D systems, Inc.) were added thereto, and the cells were cultured at 37° C. under 5% CO2 for 3 days. A well without addition of human IL-23 and without addition of the test compound and a well with addition of human IL-23 and without addition of the test compound were prepared. After completion of the culture, the culture supernatant was collected and the IL-17 production amount in the supernatant was determined by ELISA method (R & D systems, Inc.).
The IL-17 production inhibition rate (%) was calculated from Formula 2. IL-17 production inhibition rate(%)=(1−((IL-17 production amount with addition of IL-23 and with addition of the test compound)−(IL-17 production amount without addition of IL-23 and without addition of the test compound))/((IL-17 production amount with addition of IL-23 and without addition of the test compound)−(IL-17 production amount without addition of IL-23 and without addition of the test compound)))×100 Formula 2

Assay [2] concerns the target T1, ligand-binding domain of RORγ (RORγ-LBD) (Homo sapiens, UniProt P51449).
T1 construct: purchased Invitrogen
T1 sequence (P51449 269-508 limits assumed): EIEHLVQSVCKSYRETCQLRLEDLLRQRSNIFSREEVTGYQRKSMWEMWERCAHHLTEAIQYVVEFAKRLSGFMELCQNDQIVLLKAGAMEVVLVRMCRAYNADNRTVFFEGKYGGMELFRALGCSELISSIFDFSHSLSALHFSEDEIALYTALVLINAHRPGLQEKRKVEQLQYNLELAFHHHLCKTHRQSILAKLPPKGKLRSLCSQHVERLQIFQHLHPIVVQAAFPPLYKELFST
Put plainly: Inhibitory effect on RORγ-coactivator binding (LanthaScreen TR-FRET RORγ Coactivator Assay). The settings on record: at 33 μmol/L of the test compound; read-out: RORγ-coactivator binding inhibition rate (%). The method, then:
The inhibitory effect of the cyclic amine derivative (I) or a pharmacologically acceptable salt thereof on the binding between a ligand-binding domain of RORγ (hereinafter referred to as RORγ-LBD) and a coactivator was evaluated using Invitrogen's LanthaScreen™TR-FRET Retinoid-Related Orphan Receptor (ROR) gamma Coactivator Assay kit utilizing time-resolved fluorescence energy transfer (TR-FRET).
The test compound was dissolved in DMSO and diluted with TR-FRET Coregulator Buffer D (Invitrogen) containing 5 mmol/L of DTT to have a final DMSO concentration of 1% before use. To each well of a 384-well black plate (Corning Inc.), 4 nmol/L of GST-fused RORγ-LBD (Invitrogen) diluted with the buffer mentioned above and the test compound were added. A well without addition of the test compound and without addition of GST-fused RORγ-LBD (background) and a well without addition of the test compound and with addition of GST-fused RORγ-LBD (control) were prepared. Next, 150 nmol/L of fluorescein-labeled TRAP220/DRIP-2 (Invitrogen) diluted with the buffer mentioned above and 32 nmol/L of terbium-labeled anti-GST antibody (Invitrogen) were added to each well. After incubating the plate at room temperature for 16 to 24 hours, the fluorescence at 495 nm and 520 nm when excited at 320 nm was measured for each well and the ratio (fluorescence value at 520 nm/fluorescence value at 495 nm) was calculated.
The fold change with addition of the test compound (ratio with addition of the test compound/ratio of the background), the fold change of the control (ratio of the control/ratio of the background), and the fold change of the background (ratio of the background/ratio of the background) were calculated, and then the inhibition rate of binding between RORγ-LBD and a coactivator (hereinafter referred to as RORγ-coactivator binding inhibition rate) (%) was calculated from Formula 1: RORγ-coactivator binding inhibition rate(%)=(1−((Fold change with addition of the test compound)−(Fold change of the background))/((Fold change of the control)−(Fold change of the background)))×100 Formula 1

As to `CS(=O)(=O)N1CCCC[C@@H]1C(=O)Nc1ccc(-c2ccccc2OC(F)(F)F)c(Cl)c1` [Example 21, (R)-N-(2-chloro-2′-(trifluoromethoxy)-[1,1′-biphenyl]-4-yl)-1-(methylsulfonyl)piperidine-2-carboxamide], the inhibition at 5 µM in assay [1] stood at 99.8%. In addition, the inhibition at 33 µM in assay [2] stood at 98.2%.

Regarding `NC(=O)N1CCCC[C@@H]1C(=O)Nc1ccc(-c2ccccc2OC(F)(F)F)c(Cl)c1` [Example 22, (R)-N^2-(2-chloro-2′-(trifluoromethoxy)-[1,1′-biphenyl]-4-yl)piperidine-1,2-dicarboxamide], in assay [1], the inhibition at 5 µM amounted to 98.1%. The inhibition at 33 µM in assay [2] worked out at 92.4%.

For the compound `O=C(Nc1ccc(-c2ccccc2OC(F)(F)F)c(Cl)c1)[C@H]1CCCCN1C(=O)C(F)(F)F` [Example 23, (R)-N-(2-chloro-2′-(trifluoromethoxy)-[1,1′-biphenyl]-4-yl)-1-(2,2,2-trifluoroacetyl)piperidine-2-carboxamide], the inhibition at 5 µM in assay [1] came out at 99.4%. Besides, the inhibition at 33 µM in assay [2] was determined as 98.4%.

Turning to `CC(=O)N1CC[C@@H](F)C[C@@H]1C(=O)Nc1ccc(-c2ccccc2OC(F)(F)F)c(Cl)c1` [Example 25, (2R,4R)-1-acetyl-N-(2-chloro-2′-(trifluoromethoxy)-[1,1′-biphenyl]-4-yl)-4-fluoropiperidine-2-carboxamide], in assay [1], the inhibition at 5 µM was 99.4%. Also, the inhibition at 33 µM in assay [2] was found to be 94.2%.

For the compound `CS(=O)(=O)N1CCC(F)(F)C[C@@H]1C(=O)Nc1ccc(-c2ccccc2OC(F)(F)F)c(Cl)c1` [Example 28, (R)-N-(2-chloro-2′-(trifluoromethoxy)-[1,1′-biphenyl]-4-yl)-4,4-difluoro-1-(methylsulfonyl)piperidine-2-carboxamide], the inhibition at 5 µM in assay [1] turned out to be 98.6%. In addition, the inhibition at 33 µM in assay [2] was found to be 101%.

On to `CS(=O)(=O)NCCC(=O)N1CCCCC1C(=O)Nc1ccc(-c2ccccc2OC(F)(F)F)c(Cl)c1` (stereo not shown) [Example 32, N-(2-chloro-2′-(trifluoromethoxy)-[1,1′-biphenyl]-4-yl)-1-(3-(methylsulfonamide)propanoyl)piperidine-2-carboxamide], for which, in assay [1], the inhibition at 5 µM came out at 98.8%. The inhibition at 33 µM in assay [2] is 94.7%.

As to `CN(CCC(=O)N1CCCCC1C(=O)Nc1ccc(-c2ccccc2OC(F)(F)F)c(Cl)c1)S(C)(=O)=O` (stereo not shown) [Example 36, N-(2-chloro-2′-(trifluoromethoxy)-[1,1′-biphenyl]-4-yl)-1-(3-(N-methylmethylsulfonamide)propanoyl)piperidine-2-carboxamide], the inhibition at 5 µM in assay [1] worked out at 96.9%. For the same compound, the inhibition at 33 µM in assay [2] worked out at 97.2%.

For the compound `CCN(CC(=O)N1CCCCC1C(=O)Nc1ccc(-c2ccccc2OC(F)(F)F)c(Cl)c1)S(C)(=O)=O` (stereo not shown) [Example 37, N-(2-chloro-2′-(trifluoromethoxy)-[1,1′-biphenyl]-4-yl)-1-(2-(N-ethylmethylsulfonamide)acetyl)piperidine-2-carboxamide], the inhibition at 5 µM in assay [1] was 99.1%. For the same compound, the inhibition at 33 µM in assay [2] turned out to be 104%.

Turning to `CSCCC(=O)N1CCCCC1C(=O)Nc1ccc(-c2ccccc2OC(F)(F)F)c(Cl)c1` (stereo not shown) [Example 39, N-(2-chloro-2′-(trifluoromethoxy)-[1,1′-biphenyl]-4-yl)-1-(3-(methylthio)propanoyl)piperidine-2-carboxamide], the inhibition at 5 µM in assay [1] came out at 99.2%. For the same compound, the inhibition at 33 µM in assay [2] is 98.8%.

On to `CS(=O)(=O)CCC(=O)N1CCCCC1C(=O)Nc1ccc(-c2ccccc2OC(F)(F)F)c(Cl)c1` (stereo not shown) [Example 40, N-(2-chloro-2′-(trifluoromethoxy)-[1,1′-biphenyl]-4-yl)-1-(3-(methylsulfonyl)propanoyl)piperidine-2-carboxamide], for which the inhibition at 5 µM in assay [1] stood at 98.2%. The inhibition at 33 µM in assay [2] amounted to 98.7%.

As to `O=C(Nc1ccc(-c2ccccc2OC(F)(F)F)c(Cl)c1)C1CCCCN1C(=O)CCO` (stereo not shown) [Example 42, N-(2-chloro-2′-(trifluoromethoxy)-[1,1′-biphenyl]-4-yl)-1-(3-hydroxypropanoyl)piperidine-2-carboxamide], the inhibition at 5 µM in assay [1] worked out at 99.8%. In addition, the inhibition at 33 µM in assay [2] is 92.8%.

The values above are taken from US10364222B2, “Cyclic amine derivative and medical use thereof” (Toray Industries, Inc., priority 2016, dated 2019).
